{"source": "patent US20120207740A1", "about": "“Method for Treating Pervasive Development Disorders” (CUREMARK, LLC, priority 1999, published 2012)", "key": {"[1]": {"system": "children diagnosed as having autism", "test": "CARS (Childhood Autism Rating Scale) test pre- and post-secretin administration (Experiment 1)", "assay_type": "in vivo, human", "conditions": "16 autistic children", "protocol": "Upon determining that a given child was likely to benefit from secretin administration based on the results of the fecal chymotrypsin test, the child was administered a CARS (Childhood Autism Rating Scale) test prior to being scheduled for secretin infusion.\nFor each of the 16 autistic children tested, a preferred secretin infusion process according to the present invention was performed involving the administering of 1 U/kg of body weight of Secretin-Ferring for a period of nine months at intervals of approximately 6 weeks. In addition, another CARS test was administered to each of the 16 autistic children 3 weeks post secretin administration to determine if their autism had changed post infusion.\nA preferred secretin infusion process includes the initial step of prepping an arm of the candidate child with an IV injection of saline. A test dose of 1 U of Secretin-Ferring is then administered to the child. Approximately one minute after infusion, the child is examined for signs of allergic reaction including rash, increased heart rate, and increase of blood pressure. […] Subsequently, each child receives a 1 U/kg of body weight infusion of Secretin-Ferring approximately every 6 weeks for 9 months. It is to be understood that any commercially available form of secretin may be used."}, "[2]": {"system": "children diagnosed as having autism", "test": "Fecal Chymotrypsin Test before and after secretin infusion in 16 autistic children (Experiment 1)", "assay_type": "in vivo, human", "conditions": "each of 16 autistic children; approximately one week after first secretin infusion, 1 U/kg IV", "protocol": "(§1) In this experiment, 16 children diagnosed as having autism were administered the following Fecal Chymotrypsin Test in accordance with an embodiment of the invention. First, approximately 2 grams of stool were collected from each child and placed in a sterile container (although it is to be understood that any quantity of stool may be collected, as 2 grams of stool is not a required amount). Each stool sample was then analyzed using, e.g., an enzymatic photospectrometry analysis as is known by those skilled in the art, to determine the level of fecal chymotrypsin in the stool. Although the enzymatic photospectrophotometry process is preferred, any suitable conventional method may be used for measuring the fecal chymotrypsin levels. The measured chymotrypsin levels of the 16 autistic children are illustrated in FIG. 13.\nAfter determining the chymotrypsin levels of the stools, each of these levels were compared with threshold chymotrypsin levels to determine if the child was likely to benefit from secretin administration. By way of example, with the fecal chymotrypsin tests of the stool samples being performed at 30° C., normal levels of chymotrypsin are deemed to lie above 8.4 U/gram, whereas pathologically abnormal levels are deemed to lie below 4.2 U/gram. […]"}, "[3]": {"system": "children diagnosed with Autism", "conditions": "secretin given as diagnostic procedure during upper gastrointestinal endoscopy; Horvath et al. 1998; cited from earlier work"}, "[4]": {"system": "autistic children with abnormal fecal chymotrypsin levels", "test": "Fecal chymotrypsin levels of 37 autistic children administered secretin over 6 months (Experiment 2)", "assay_type": "in vivo, human", "conditions": "6 Months Post-Secretin Administration, of 37 children", "protocol": "as §1\nAfter determining the chymotrypsin levels of the stools, each of these levels were compared with threshold chymotrypsin levels to determine if the child was likely to benefit from secretin administration. By way of example, with the fecal chymotrypsin tests of the stool samples being performed at 30° C., normal levels of chymotrypsin are deemed to lie above 8.4 U/gram, whereas pathologically abnormal levels are deemed to lie below 4.2 U/gram. In addition, chymotrypsin levels between 8.4 U/gram and 4.2 U/gram are considered equivocal, and further testing of the individual's fecal chymotrypsin levels over a period of time should be performed.\nA preferred secretin infusion process includes the initial step of prepping an arm of the candidate child with an IV injection of saline. A test dose of 1 U of Secretin-Ferring is then administered to the child. […]\nIn this experiment, 37 autistic children with abnormal fecal chymotrypsin levels were administered secretin over the course of 6 months using the secretin infusion process described above. Their fecal chymotrypsin (FC) levels were measured weekly using the fecal chymotrypsin test described above."}}, "data": [{"substance": "secretin", "values": [{"measurement": "CARS component scores (except fear component)", "setting": "[1]; 3 weeks post infusion", "value": "demonstrated improvement"}, {"measurement": "overall CARS scores post-secretin versus pre-secretin", "setting": "[1]; approximately 3 weeks after first secretin administration", "value": "overall decrease"}, {"measurement": "fecal chymotrypsin level post-secretin administration versus pre-secretin", "setting": "[2]", "value": "increased"}, {"measurement": "symptoms associated with Autism", "setting": "[3]", "value": "ameliorating the symptoms"}, {"measurement": "# Autistic Children w/Equivocal FC levels", "setting": "[4]; 0 equivocal pre-secretin", "value": 2}, {"measurement": "# Autistic Children w/normal FC levels", "setting": "[4]; 0 normal pre-secretin", "value": 34}, {"measurement": "# Autistic Children w/Abnormal FC levels", "setting": "[4]; 37 abnormal pre-secretin", "value": 1}]}]}
